Where two headings read alike, the source gives them in different places.
What was measured:
[1] = tested on: Lewis rats; assay: Lewis rat adjuvant-induced arthritis, inhibition protocol; assay type: in vivo
[2] = tested on: HLA-B27 rats; details: for Stool score (group's average score): 2=soft stool, 1=normal stool
[3] = tested on: Progesterone receptor mRNA; assay: Progesterone receptor mRNA regulation in the preoptic area of the rat brain; assay type: in vivo
[4] = tested on: Sexually immature 129 SvE mice; assay: Mouse uterotrophic test procedure (Procedure 2); assay type: in vivo; details: 50 mg/kg/day sc, days 22-25
[5] = tested on: Sexually immature Sprague-Dawley rats; assay: Rat uterotrophic test procedure (Procedure 1); assay type: in vivo
[6] = tested on: casein kinase II mRNA; assay: Rat mammotrophic assay (mammary end bud test procedure); assay type: in vivo; details: ovariectomized rats, with progesterone 30 mg/kg
[7] = tested on: HLA-B27 rats; details: for Joint inflammation score: 10 mg/kg orally once per day
[8] = tested on: Lewis rats; assay: Lewis rat adjuvant-induced arthritis, treatment protocol; assay type: in vivo; details: for Joint inflammation score: 10 mg/kg sc daily from Day 8 after adjuvant
[9] = tested on: metallothionein-II mRNA in Saos-2 cells; assay: Regulation of metallothionein-II mRNA in Saos-2 cells; assay type: cell-based; design: unit not given here; details: column head not given
[10] = colon histological score, 10 mg/kg orally for 46 days
[11] = joint histology, 10 mg/kg orally for 46 days
[12] = Mankin scores, tarsal joints, 10 mg/kg, mean ± SD
[13] = synovitis histology, tarsal joints, 10 mg/kg, mean ± SD

N#Cc1cc(-c2ccc(O)c(F)c2)cc2ccc(O)cc12 [Example 1av, 3-(3-Fluoro-4-hydroxyphenyl)-7-hydroxy-1-naphthonitrile]
Joint inflammation score ([1]; sc daily from Day 1, Day 1, maximal score 12): 0.00
Joint inflammation score ([1]; sc daily from Day 1, Day 2, maximal score 12): 0.00
Joint inflammation score ([1]; sc daily from Day 1, Day 3, maximal score 12): 2.66
Joint inflammation score ([1]; sc daily from Day 1, Day 4, maximal score 12): 1.83
Joint inflammation score ([1]; sc daily from Day 1, Day 5, maximal score 12): 2.66
Joint inflammation score ([1]; sc daily from Day 1, Day 6, maximal score 12): 2.16
Joint inflammation score ([1]; sc daily from Day 1, Day 7, maximal score 12): 2.00
Joint inflammation score ([1]; sc daily from Day 1, Day 8, maximal score 12): 1.66
Joint inflammation score ([1]; sc daily from Day 1, Day 9, maximal score 12): 2.00
Joint inflammation score ([1]; sc daily from Day 1, Day 10, maximal score 12): 2.00
Joint inflammation score ([1]; sc daily from Day 1, Day 11, maximal score 12): 1.66
Joint inflammation score ([1]; sc daily from Day 1, Day 12, maximal score 12): 1.66
Joint inflammation score ([1]; sc daily from Day 1, Day 13, maximal score 12): 2.16
Joint inflammation score ([1]; sc daily from Day 1, Day 14, maximal score 12): 2.00
Joint inflammation score ([1]; sc daily from Day 1, Day 15, maximal score 12): 2.00
Joint inflammation score ([1]; sc daily from Day 1, Day 16, maximal score 12): 1.00
Joint inflammation score ([1]; sc daily from Day 1, Day 17, maximal score 12): 1.33
Time until stool character normalized ([2]; 10 mg/kg orally daily): ≤ 21 days
Stool score (group's average score) ([2]; 10 mg/kg orally daily, Day 1, 3=diarrhea): 2.75
Stool score (group's average score) ([2]; 10 mg/kg orally daily, Day 2, 3=diarrhea): 2.5
Stool score (group's average score) ([2]; 10 mg/kg orally daily, Day 3, 3=diarrhea): 2.25
Stool score (group's average score) ([2]; 10 mg/kg orally daily, Day 4, 3=diarrhea): 2.5
Stool score (group's average score) ([2]; 10 mg/kg orally daily, Day 5, 3=diarrhea): 2.25
Stool score (group's average score) ([2]; 10 mg/kg orally daily, Day 6, 3=diarrhea): 2.5
Stool score (group's average score) ([2]; 10 mg/kg orally daily, Day 7, 3=diarrhea): 2.5
Stool score (group's average score) ([2]; 10 mg/kg orally daily, Day 8, 3=diarrhea): 2
Stool score (group's average score) ([2]; 10 mg/kg orally daily, Day 9, 3=diarrhea): 2
Stool score (group's average score) ([2]; 10 mg/kg orally daily, Day 10, 3=diarrhea): 1.5
Stool score (group's average score) ([2]; 10 mg/kg orally daily, Day 11, 3=diarrhea): 1.5
Stool score (group's average score) ([2]; 10 mg/kg orally daily, Day 12, 3=diarrhea): 1.5
Stool score (group's average score) ([2]; 10 mg/kg orally daily, Day 13, 3=diarrhea): 1.75
Stool score (group's average score) ([2]; 10 mg/kg orally daily, Day 14, 3=diarrhea): 1.75
Stool score (group's average score) ([2]; 10 mg/kg orally daily, Day 15, 3=diarrhea): 1.5
Stool score (group's average score) ([2]; 10 mg/kg orally daily, Day 16, 3=diarrhea): 1.5
Stool score (group's average score) ([2]; 10 mg/kg orally daily, Day 17, 3=diarrhea): 1.25
Stool score (group's average score) ([2]; 10 mg/kg orally daily, Day 18, 3=diarrhea): 1.25
Stool score (group's average score) ([2]; 10 mg/kg orally daily, Day 19, 3=diarrhea): 1.25
Stool score (group's average score) ([2]; 10 mg/kg orally daily, Day 20, 3=diarrhea): 1.25
Stool score (group's average score) ([2]; 10 mg/kg orally daily, Day 21, 3=diarrhea): 1.25
Stool score (group's average score) ([2]; 10 mg/kg orally daily, Day 22, 3=diarrhea): 1
Stool score (group's average score) ([2]; 10 mg/kg orally daily, Day 23, 3=diarrhea): 1
Stool score (group's average score) ([2]; 10 mg/kg orally daily, Day 24, 3=diarrhea): 1
Stool score (group's average score) ([2]; 10 mg/kg orally daily, Day 25, 3=diarrhea): 1
Fibrosis (0–2) [2, 10]: 0.07 ± 0.13
Inflammation (0–3) [2, 10]: 1.13 ± 0.43
Lesion depth (0–2) [2, 10]: 0.38 ± 0.43
Total score [2, 10]: 2.00 ± 1.14
Ulceration (0–2) [2, 10]: 0.44 ± 0.43
Progesterone receptor mRNA (arbitrary units; mean ± stdev) ([3]; 10 mg/kg): 33.7 ± 20.6 arbitrary units
mean uterine weight (mg) ± SEM [4]: 12.6 ± 0.8 mg
mean uterine weight (mg) ± SEM ([5]; 2 mg/rat/day coadministered with 17α-ethinyl-17β-estradiol 0.06 μg/rat/day (antagonist mode)): 81.9 ± 4.2 mg
mean uterine weight (mg) ± SEM ([5]; 2 mg/rat/day sc, days 19-21): 23.3 ± 1.3 mg
Casein kinase II mRNA/18S rRNA (mean ± SEM) ([6]; 20 mg/kg sc 6 days): 1.06 ± 0.17
Joint inflammation score ([7]; Day 29): 0.5
Joint inflammation score ([7]; Day 30): 0.5
Joint inflammation score ([7]; Day 31): 0.5
Joint inflammation score ([7]; Day 32): 1
Joint inflammation score ([7]; Day 33): 1.75
Joint inflammation score ([7]; Day 34): 1.5
Joint inflammation score ([7]; Day 35): 1
Joint inflammation score ([7]; Day 36): 1.75
Joint inflammation score ([7]; Day 37): 1.75
Joint inflammation score ([7]; Day 38): 1.5
Joint inflammation score ([7]; Day 39): 0.75
Joint inflammation score ([7]; Day 40): 0.75
Joint inflammation score ([7]; Day 41): 0.5
Joint inflammation score ([7]; Day 42): 1.5
Joint inflammation score ([7]; Day 43): 1.25
Joint inflammation score ([7]; Day 44): 1.75
Joint inflammation score ([7]; Day 45): 1.25
Joint inflammation score ([7]; Day 46): 0.75
Mankin score (mean ± SD) [7, 11]: 4.5 ± 1.8
Synovitis score (mean ± SD) [7, 11]: 5.0 ± 2.5
Joint inflammation score ([8]; Day 1, maximal score 12): 11.33
Joint inflammation score ([8]; Day 2, maximal score 12): 10.83
Joint inflammation score ([8]; Day 3, maximal score 12): 9.33
Joint inflammation score ([8]; Day 4, maximal score 12): 8.00
Joint inflammation score ([8]; Day 5, maximal score 12): 5.83
Joint inflammation score ([8]; Day 6, maximal score 12): 3.33
Joint inflammation score ([8]; Day 7, maximal score 12): 3.00
Joint inflammation score ([8]; Day 8, maximal score 12): 2.50
Joint inflammation score ([8]; Day 9, maximal score 12): 2.50
Joint inflammation score ([8]; Day 10, maximal score 12): 2.50
Joint inflammation score ([8]; Day 11, maximal score 12): 2.50
Joint inflammation score ([8]; Day 12, maximal score 12): 2.50
Joint inflammation score ([8]; Day 13, maximal score 12): 2.50
Joint inflammation score ([8]; Day 14, maximal score 12): 2.50
Joint inflammation score ([8]; Day 15, maximal score 12): 2.00
Joint inflammation score ([8]; Day 16, maximal score 12): 1.33
Joint inflammation score ([8]; Day 17, maximal score 12): 1.00
Cartilage Cells (0–3) [8, 12]: 0.75 ± 0.42
Cartilage Structure (0–6) [8, 12]: 1.83 ± 0.68
Saffranin-O/Fast Green Staining (0–4) [8, 12]: 1.25 ± 0.52
Tidemark Integrity (0–1) [8, 12]: 0
Total Mankin Score (0–14) [8, 12]: 3.83 ± 1.21
Fibroplasia (0–3) [8, 13]: 0.75 ± 0.42
Inflammatory Cells (0–3) [8, 13]: 1.25 ± 0.42
Pannus (0–1) [8, 13]: 0.33 ± 0.61
Synovial Structure (0–3) [8, 13]: 1.58 ± 0.38
Total Synovitis Score (0–10) [8, 13]: 3.83 ± 0.93

Oc1ccc(-c2ccc3c(Cl)c(O)ccc3c2)cc1 [Example 1p, 1-Chloro-6-(4-hydroxyphenyl)-2-naphthol]
Regulation of metallothionein-II mRNA [9]: 6.0

Oc1ccc(-c2ccc3cc(O)ccc3c2)cc1 [Example 1e, 6-(4-Hydroxyphenyl)-2-naphthol]
Regulation of metallothionein-II mRNA [9]: 17.0

C[C@]12CC[C@@H]3c4ccc(O)cc4CC[C@H]3[C@@H]1CC[C@@H]2O [17β-estradiol, reference compound]
Progesterone receptor mRNA (arbitrary units; mean ± stdev) ([3]; 30 μg/kg): 557.1 ± 80.6 arbitrary units
mean uterine weight (mg) ± SEM [4]: 45.3 ± 1.9 mg
Casein kinase II mRNA/18S rRNA (mean ± SEM) ([6]; 0.1 mg/kg sc 6 days): 39.0 ± 5.4

N#Cc1c(O)ccc2cc(-c3ccc(O)cc3)ccc12 [Example 1s, 2-Hydroxy-6-(4-hydroxyphenyl)-1-naphthonitrile]
Regulation of metallothionein-II mRNA [9]: 4.9

Oc1ccc2cc(-c3ccc(O)c(Cl)c3)ccc2c1 [Example 1l, 6-(3-Chloro-4-hydroxyphenol)-2-naphthol]
Regulation of metallothionein-II mRNA [9]: 5.5

Oc1ccc(-c2ccc3c(Br)c(O)ccc3c2)cc1 [Example 1o, 1-Bromo-6-(4-hydroxyphenyl)-2-naphthol]
Regulation of metallothionein-II mRNA [9]: 5.7

— patent publication US7067524B2, “Substituted phenyl naphthalenes as estrogenic agents” (Wyeth, priority 2001, dated 2006)
